Values of other authors, collected in patent US20210022978A1, “BUMETANIDE DERIVATIVES FOR THE THERAPY OF HYPERHIDROSIS” (ZILENTIN AG, priority 2018, published 2021).

What was measured:
conditioned anxiety = details: rats, compared with the vehicle alone
NKCC in sweat glands = target: T1, NKCC in sweat glands (Homo sapiens, UniProt P55011)
T1 construct: host or cells: sweat glands (in vivo)
T1 sequence (P55011 1-1212): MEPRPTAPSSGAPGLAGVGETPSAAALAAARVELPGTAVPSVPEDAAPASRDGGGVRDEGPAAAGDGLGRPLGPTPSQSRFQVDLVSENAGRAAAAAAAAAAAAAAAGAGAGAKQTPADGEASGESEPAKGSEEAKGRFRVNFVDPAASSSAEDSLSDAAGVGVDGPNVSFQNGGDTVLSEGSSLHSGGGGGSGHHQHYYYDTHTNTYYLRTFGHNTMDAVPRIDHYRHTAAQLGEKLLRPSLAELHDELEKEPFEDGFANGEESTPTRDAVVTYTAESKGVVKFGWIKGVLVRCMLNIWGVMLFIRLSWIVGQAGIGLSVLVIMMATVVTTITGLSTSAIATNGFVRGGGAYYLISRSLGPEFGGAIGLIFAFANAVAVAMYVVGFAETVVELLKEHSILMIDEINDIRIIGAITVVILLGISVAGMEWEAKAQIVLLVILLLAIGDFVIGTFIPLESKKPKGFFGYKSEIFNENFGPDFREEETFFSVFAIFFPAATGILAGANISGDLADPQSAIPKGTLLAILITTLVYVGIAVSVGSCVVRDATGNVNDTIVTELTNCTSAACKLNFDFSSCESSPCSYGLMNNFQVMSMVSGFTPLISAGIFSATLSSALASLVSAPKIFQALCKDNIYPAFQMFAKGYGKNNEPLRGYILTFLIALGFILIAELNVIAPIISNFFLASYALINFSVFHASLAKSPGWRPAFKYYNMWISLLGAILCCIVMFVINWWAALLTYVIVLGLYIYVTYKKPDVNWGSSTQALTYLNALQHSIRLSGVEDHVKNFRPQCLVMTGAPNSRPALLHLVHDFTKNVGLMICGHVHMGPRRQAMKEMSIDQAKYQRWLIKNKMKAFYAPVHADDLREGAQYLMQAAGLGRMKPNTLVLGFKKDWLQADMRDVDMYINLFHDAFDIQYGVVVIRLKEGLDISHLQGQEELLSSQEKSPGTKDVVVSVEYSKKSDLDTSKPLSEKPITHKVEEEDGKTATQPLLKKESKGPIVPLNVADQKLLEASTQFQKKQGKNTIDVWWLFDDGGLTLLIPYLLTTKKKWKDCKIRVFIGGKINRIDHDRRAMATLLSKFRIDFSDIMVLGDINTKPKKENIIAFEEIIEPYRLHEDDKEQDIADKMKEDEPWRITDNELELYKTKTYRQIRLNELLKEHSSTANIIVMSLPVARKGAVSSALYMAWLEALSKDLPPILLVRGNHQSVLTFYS

SMILES	percentage of test period freezing (conditioned anxiety)	effectiveness in treating hyperhidrosis (NKCC in sweat glands)	inhibition of rAceMIF tautomerase activity (rAceMIF)
CCCCNc1cc(C(=O)O)cc(S(N)(=O)=O)c1Oc1ccccc1 [bumetanide, 3-(butylamino)-4-phenoxy-5-sulfamoylbenzoic acid]	significantly smaller percentage of test period freezing	partly effective	–
NS(=O)(=O)c1cc(C(=O)O)c(NCc2ccco2)cc1Cl [furosemide]	–	–	submicromolar
